These results are taken from patent publication US20240247250A1, “COMPOSITIONS AND METHODS FOR MODIFYING DNA” (The Regents of the University of California, priority 2021, published 2024).

Entries after “also recorded” stand apart in the source; their conditions may differ.

For this experiment, the target named is tRNA guanine transglycosylase (TGT) (Escherichia coli, UniProt P0A847). Nature of the experiment: TGT labeling of DNA/RNA hairpin oligos with PreQ1 probes, urea PAGE gel shift. The following applies: for turn over by TGT: extended stem DNA analog of ECYA1 with minimal recognition element mutations, denaturing urea PAGE shift and intensity; for labeled product: 17 nucleotide DNA hairpins derived from cognate tRNA anticodon loops; for labeling of the representative DNA hairpin substrate by functional PreQ1 probes: urea PAGE gel shift assays. In kind it is biochemical, E. coli. A general note: Mobility shift assays separate free from complexed probe on a gel.

[1] abbreviates: urea PAGE gel shift and intensity.

Sequence of tRNA guanine transglycosylase (TGT) (P0A847 whole entry): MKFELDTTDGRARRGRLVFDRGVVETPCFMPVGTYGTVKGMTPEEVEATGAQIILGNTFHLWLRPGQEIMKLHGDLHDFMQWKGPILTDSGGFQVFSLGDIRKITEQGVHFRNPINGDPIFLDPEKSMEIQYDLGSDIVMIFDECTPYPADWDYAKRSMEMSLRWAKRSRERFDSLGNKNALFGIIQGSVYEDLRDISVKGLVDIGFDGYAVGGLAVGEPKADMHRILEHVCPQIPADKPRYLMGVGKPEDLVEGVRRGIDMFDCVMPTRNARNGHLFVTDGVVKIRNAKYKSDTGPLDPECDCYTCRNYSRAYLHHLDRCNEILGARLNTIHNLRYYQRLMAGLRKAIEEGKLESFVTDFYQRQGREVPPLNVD

With GGGAGCAGACUGTAAATCTGCTCCC [dUdGdT], the “turn over by TGT” value (PreQ1-biotin probe) is on record as “no appreciable turn over”.
With CCTGCCTGTCACGCAGG, under setting [1], the labeled product is recorded as roughly 40%.
Turning to GGGAGCAGACTGUAAATCTGCTCCC [dTdGdU], the “turn over by TGT” value (PreQ1-biotin probe) is recorded as “comparable turn over to the wildtype RNA substrate”.
As to `Nc1nc2[nH]cc(CNCCCCCCNC(=O)CCCCC3SCC4NC(=O)NC43)c2c(=O)[nH]1` (stereo not shown) [PreQ1-biotin], the “labeling of the representative DNA hairpin substrate by functional PreQ1 probes” value (“labeling … by functional PreQ1 probes” for short) was “Quantitative labeling”.
In the case of “GCAGACTGTAAATCTGC [tyrosine based counterpart]”, the labeled product under setting [1] is roughly -5%.
Regarding CTGGACTGTCACTCCAG [His(stem)-Asp(loop)], for the setting “composite hairpins with swapped stems and loops, urea PAGE gel shift and intensity”, the labeling efficiency entry was “over 50%”.
Regarding CTGGATTGTGATTCCAG, the labeled product under setting [1] is reported as roughly 40%.
For TAMRA, the “labeling … by functional PreQ1 probes” value is listed as “Quantitative labeling”.
Regarding CTGGATTGTCCTTCCAG [SEQ ID NO:21], the “labeling with PreQ1-biotin confirmed by LCMS” value (LCMS analysis of PreQ1-biotin labeled sequence) was “efficient labeling”. The “labeling of hairpin or loop sequence appended to longer ssDNA” value (PreQ1-biotin probe, urea PAGE gel shift, listed as TAG2 DNA hairpin) is listed as “can be modified internally; also recorded: can be modified at either end of a DNA sequence of interest”.
With GGGAGCAGACUGUAAATCTGCTCCC [dUdGdU], the “turn over by TGT” value (PreQ1-biotin probe) is on record as “comparable turn over to the wildtype RNA substrate”.
Consider Alexa Fluor 647, for which the “labeling … by functional PreQ1 probes” value is “Quantitative labeling”.
Take GGGAGCAGACTGTAAATCTGCTCCC [dTdGdT]: the “turn over by TGT” value (PreQ1-biotin probe) was “no appreciable turn over”.
